Laboratory results from PMC9190012, “Heparin activation of protein Z-dependent protease inhibitor (ZPI) allosterically blocks protein Z activation through an extended heparin-binding site” (The Journal of Biological Chemistry, 2022).
Changes are numbered by the printed parent chain. Like-named read-outs stand apart in the source and are kept apart here.

Legend:
[1] = biological target: T1, NBD-ZPI–PZ interactions (Homo sapiens, UniProt Q9UK55, C190A/C285S/K260C); test: Titrations of NBD-ZPI with PZ in absence and presence of fixed levels of heparin; format: binding; conditions: read-out: ZPI–heparin KD,H (predicted)
T1 construct: made in house; host or cells: Escherichia coli
T1 sequence (Q9UK55 22-444 C190A/K260C/C285S): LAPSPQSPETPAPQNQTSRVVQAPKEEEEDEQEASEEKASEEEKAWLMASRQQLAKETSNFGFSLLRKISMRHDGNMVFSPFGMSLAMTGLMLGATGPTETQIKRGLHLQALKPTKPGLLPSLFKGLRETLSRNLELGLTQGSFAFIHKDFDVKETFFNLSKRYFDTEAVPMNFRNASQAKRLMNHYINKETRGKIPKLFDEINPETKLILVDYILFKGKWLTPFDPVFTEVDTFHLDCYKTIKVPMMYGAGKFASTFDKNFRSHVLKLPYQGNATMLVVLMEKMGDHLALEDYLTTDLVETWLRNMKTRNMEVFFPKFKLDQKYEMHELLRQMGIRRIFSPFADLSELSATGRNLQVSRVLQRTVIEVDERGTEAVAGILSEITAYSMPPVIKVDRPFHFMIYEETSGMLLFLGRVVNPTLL
Protocol: The effect of heparin on PZ binding to ZPI was measured by titrations of 50 nM NBD-ZPI with PZ in the absence and presence of different fixed levels of heparins of various lengths in the higher ionic strength buffer used for emission spectra. Titrations were monitored from the enhancement of NBD-ZPI fluorescence that signals PZ binding. These titrations were fit by the quadratic binding equation, ΔFobs/F0=ΔFmax/F0×[ZPI]0+[PZ]0+KD,PZapp−([ZPI]0+[PZ]0+KD,PZapp)^2−4×[ZPI]0×[PZ]0/2×[ZPI]0 where ΔFobs/Fo and ΔFmax/Fo are the observed and maximal fluorescence changes after addition of PZ expressed relative to the initial free NBD-ZPI fluorescence, respectively, and KD,PZapp = KD,PZ × (1 + [H]o/KD,H) is the apparent dissociation constant for the ZPI–PZ interaction in the absence or presence of heparin. The fitted parameters were KD,PZapp and ΔFmax/Fo.

[2] = biological target: T2, helix H site mutant ZPI (K260A/R263A/R305A/K308A/R310A) (Homo sapiens, UniProt Q9UK55, K281A/K329A/R284A/R326A/R331A); test: Direct heparin binding titrations monitored by intrinsic protein fluorescence quenching; conditions: 200 nM helix H site mutant ZPI
T2 construct: made in house; host or cells: Escherichia coli
T2 sequence (Q9UK55 22-444 K281A/R284A/R326A/K329A/R331A): T1 sequence (Q9UK55 22-444 C190A/K260C/C285S) with A169C, C239K, K260A, R263A, S264C, R305A, K308A, R310A
Protocol: (§1) Fluorescence emission spectra of NBD-ZPI (50–100 nM) were measured in the absence or the presence of PZ and heparin in 20 mM Tris buffer (pH 7.4), 0.2 M NaCl, 0.1% PEG 8000, 1 mg/ml bovine serum albumin (BSA), and 2.5 mM CaCl2 with an SLM 8000 spectrofluorometer with excitation at 480 nm over the emission range of 500 to 600 nm. Intrinsic protein fluorescence of WT and mutant ZPIs (200 nM to 1 μM) was measured in the same buffer without BSA, with excitation at 280 nm over the emission range of 300 to 400 nm. Emission was monitored in 5-nm steps with 5 to 10 s of integrations per step. Spectra were obtained in triplicate and averaged. Buffer, buffer plus PZ, or buffer plus heparin background spectra were subtracted, and dilution corrections were made for added PZ or heparin (<10%). Direct equilibrium binding of heparin to ZPI was measured by titrations of unlabeled WT and variant ZPIs (0.2–1 μM) with heparin monitored by the quenching of intrinsic protein fluorescence accompanying heparin binding at excitation and emission wavelengths of 280 and 340 nm, respectively. Titrations were computer fit by the aforementioned quadratic binding equation with [H]o replacing [PZ]o and KD,H replacing KD,PZapp.

[3] = biological target: T3, WT ZPI (Homo sapiens, UniProt Q9UK55); test: as above
T3 construct: made in house; host or cells: Escherichia coli
T3 sequence (Q9UK55 22-444): T1 sequence (Q9UK55 22-444 C190A/K260C/C285S) with A169C, C239K, S264C
Protocol: as §1

[4] = biological target: T4, helix C site mutant ZPI (K104A/R105A/K113A/K116A) (Homo sapiens, UniProt Q9UK55, K125A/K134A/K137A/R126A); test: as above; conditions: 1 μM helix C site mutant ZPI; quenching end point fixed at WT
T4 construct: made in house; host or cells: Escherichia coli
T4 sequence (Q9UK55 22-444 K125A/R126A/K134A/K137A): T1 sequence (Q9UK55 22-444 C190A/K260C/C285S) with K104A, R105A, K113A, K116A, A169C, C239K, S264C
Protocol: as §1

CO[C@H]1O[C@H](COS(=O)(=O)O)[C@@H](O[C@@H]2O[C@@H](C(=O)O)[C@@H](O[C@H]3O[C@H](COS(=O)(=O)O)[C@@H](O[C@@H]4O[C@H](C(=O)O)[C@@H](O[C@H]5O[C@H](COS(=O)(=O)O)[C@@H](O)[C@H](O)[C@H]5NS(=O)(=O)O)[C@H](O)[C@H]4O)[C@H](OS(=O)(=O)O)[C@H]3NS(=O)(=O)O)[C@H](O)[C@H]2OS(=O)(=O)O)[C@H](O)[C@H]1NS(=O)(=O)O [H5, fondaparinux]
Kd ([1]; calculated from KD,PZapp at 211 μM heparin): 53 µM | Kd ([1]; calculated from KD,PZapp at 423 μM heparin): 44 µM | Kd [2]: 142 ± 42 µM | Kd ([3]; 200 nM WT ZPI, 0.2 M NaCl buffer, pH 7.4, 25 °C): 123 ± 23 µM | maximal quenching of protein fluorescence ([3]; fit of titration by quadratic binding equation): −15 ± 1% | quenching of the protein fluorescence emission spectrum ([3]; near saturating levels of heparin (400 μM H5 or 4 μM H72)): 15 to 20% | Kd [4]: 1900 ± 200 µM
